IC50 data for 34 compounds are collected here from patent US9126984B2, “4-(indol-3-yl)-pyrazole derivatives, pharmaceutical compositions and methods for use” (ITEOS THERAPEUTICS, priority 2013, dated 2015).

Assay [1] addresses T1, human recombinant TDO2 enzyme (Homo sapiens, UniProt P48775).
T1 construct: made in house
The assay can be described thus: Assay for TDO2 enzymatic activity determination. The conditions noted are these: human recombinant TDO2, L-Trp 1 mM, room temperature one hour, kynurenine absorbance at 480 nm. The assay is classed as biochemical. Here is the method:
To measure the TDO2 activity, the reaction mixture contained (final concentrations) potassium phosphate buffer (50 mM, pH 7.5), ascorbic acid (0.25 M), methylene blue (0.125 μM), catalase (40 units/mL, from bovine liver, Sigma), and human recombinant TDO2 enzyme (prepared as described in Dolusic et al. J. Med. Chem.; 2011, 54, 5320-5334; 0.9 μg) without or with the compounds of the present invention embodiments at the indicated concentrations (total volume 112.5 μL). The reaction was initiated by the addition of 37.5 μL of L-Trp (final concentration 1 mM) at room temperature. The reaction was conducted at room temperature during one hour and stopped by the addition of 30 μL of 30% (w/v) trichloroacetic acid.
To convert N-formylkynurenine into kynurenine, the reaction mixture was incubated at 65° C. for 30 min. Then 150 μL of the reaction mixture was mixed with 120 μL, of 2.5% (w/v) 4-(dimethylamino)-benzaldehyde in acetic acid and incubated for 5 min at room temperature. Kynurenine concentrations were determined by measuring the absorbance at 480 nm. A standard curve was made with pure kynurenine. The TDO activity was measured as described above using ten serial concentrations of certain embodiments of the compounds of the present invention. Data were fitted using the Prism software (GraphPad Software, Inc.).

In assay [2] the target is T2, murine mastocytoma P815 cells overexpressing hTDO2 (Homo sapiens, UniProt P48775).
T2 construct: expressed in transfected cells; host or cells: murine mastocytoma P815 cells
T2 sequence (P48775 whole entry): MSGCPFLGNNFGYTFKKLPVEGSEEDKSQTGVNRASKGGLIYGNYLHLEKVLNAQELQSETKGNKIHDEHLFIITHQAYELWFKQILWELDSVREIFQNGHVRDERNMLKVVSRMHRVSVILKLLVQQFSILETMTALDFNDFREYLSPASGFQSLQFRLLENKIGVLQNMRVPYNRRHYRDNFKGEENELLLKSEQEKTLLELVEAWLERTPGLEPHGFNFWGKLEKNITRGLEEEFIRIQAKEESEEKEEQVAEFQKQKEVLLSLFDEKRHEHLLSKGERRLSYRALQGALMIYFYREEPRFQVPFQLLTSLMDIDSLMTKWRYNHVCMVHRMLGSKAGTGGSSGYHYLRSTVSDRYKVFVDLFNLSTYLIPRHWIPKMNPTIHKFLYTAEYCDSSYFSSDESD
The assay can be described thus: Cellular assay for TDO2 activity determination. The assay is classed as cell-based. The conditions noted are these: P815 cells overexpressing hTDO2, overnight incubation at 37° C., kynurenine absorbance at 480 nm. As to the method:
The assay was performed in 96-well flat bottom plates seeded with murine mastocytoma P815 cells overexpressing hTDO2 (prepared as described in Pilotte et al., PNAS, 2012, 109(7), 2497-2502), at a concentration of 5×10^4 cells/well in a final volume of 200 μL. To determine TDO or IDO activity, the cells were incubated overnight at 37° C. at 5% CO2 in IMDM (Invitrogen) supplemented with 2% FBS and 2% penicillin/streptomycin in the presence of the compounds of the present invention, at different concentrations.
The plates were then centrifuged 5 min at 1000 rpm, and 100 μL of the supernatant were collected in a conical plate, 30 uL of TCA 30% were added and a further centrifugated at 3000×g for 10 minutes. 100 μL of the supernatant were collected in a flat bottomed plate and 100 μL of 2% (w/v) 4-(dimethylamino)-benzaldehyde in acetic acid and incubated for 5 min at room temperature. Kynurenine concentrations were determined by measuring the absorbance at 480 nm. A standard curve was made with pure kynurenine. The TDO activity was measured as described above using ten serial concentrations of the compounds of the present invention. Data were fitted using the Prism software (GraphPad Software, Inc.).

Each structure is given as a SMILES string. Where only a bound is given, the exact number is not on record here.

T1 sequence (P48775 whole entry): as above

For orientation: IC50 means the concentration at which inhibition is half-maximal. As to `CC(Cn1cc(-c2c[nH]c3cc(F)ccc23)cn1)C(N)=O` (single isomer, unassigned) [Example 36, 3-(4-(6-fluoro-1H-indol-3-yl)-1H-pyrazol-1-yl)-2-methylpropanamide], the IC50 in assay [1] is 1 to 10 µM; in assay [2], < 1 µM.
Consider `Cc1c(-c2c[nH]c3cc(F)ccc23)cnn1C` (single isomer, unassigned) [Example 74, 3-(1,5-dimethyl-1H-pyrazol-4-yl)-6-fluoro-1H-indole], for which the IC50 was 1 to 10 µM in assay [1] and < 1 µM in assay [2].
On the same counts, the results for `Fc1ccc2c(-c3cnn(C4CNC4)c3)c[nH]c2c1` [Example 2, 3-(1-(azetidin-3-yl)-1H-pyrazol-4-yl)-6-fluoro-1H-indole] are < 1 µM and < 1 µM.
Regarding `CC(=O)N1CC(n2cc(-c3c[nH]c4cc(F)ccc34)cn2)C1` [Example 3, 1-(3-(4-(6-fluoro-1H-indol-3-yl)-1H-pyrazol-1-yl)azetidin-1-yl)ethanone], the IC50 in assay [1] was 1 to 10 µM.
On to `NC(=O)N1CC(n2cc(-c3c[nH]c4cc(F)ccc34)cn2)C1` [Example 4, 3-(4-(6-fluoro-1H-indol-3-yl)-1H-pyrazol-1-yl)azetidine-1-carboxamide], for which the IC50 in assay [1] lay in the range of 1 to 10 µM.
Same read-out and setting: next, `CNC(=O)N1CC(n2cc(-c3c[nH]c4cc(F)ccc34)cn2)C1` [Example 5, 3-(4-(6-fluoro-1H-indol-3-yl)-1H-pyrazol-1-yl)-N-methylazetidine-1-carboxamide]: 1 to 10 µM.
As for `Fc1ccc2c(-c3cnn(CC4CNC4)c3)c[nH]c2c1` [Example 6, 3-(1-(azetidin-3-ylmethyl)-1H-pyrazol-4-yl)-6-fluoro-1H-indole], the IC50 in assay [1] and in assay [2] was < 1 µM each time.
Take `CN(C)CCNC(=O)CCn1cc(-c2c[nH]c3cc(F)ccc23)cn1` [Example 13, N-(2-(dimethylamino)ethyl)-3-(4-(6-fluoro-1H-indol-3-yl)-1H-pyrazol-1-yl)propanamide]: in assay [1], the 50% inhibitory concentration (IC50) fell in the range of 1 to 10 µM.
Same read-out and setting: under `CNC(=O)CCn1cc(-c2c[nH]c3cc(F)ccc23)cn1` [Example 14, 3-(4-(6-fluoro-1H-indol-3-yl)-1H-pyrazol-1-yl)-N-methylpropanamide] stands 1 to 10 µM.
Still for that read-out and setting: next, `CN(C)C(=O)CCn1cc(-c2c[nH]c3cc(F)ccc23)cn1` [Example 15, 3-(4-(6-fluoro-1H-indol-3-yl)-1H-pyrazol-1-yl)-N,N-dimethylpropanamide]: 1 to 10 µM.
On the same count and under the same terms, next, `O=C(O)CCn1cc(-c2c[nH]c3cc(F)ccc23)cn1` [Example 16, 3-(4-(6-fluoro-1H-indol-3-yl)-1H-pyrazol-1-yl)propanoic acid]: 1 to 10 µM.
Consider `O=C(O)CCn1cc(-c2c[nH]c3cc(F)c(F)cc23)cn1` [Example 17, 3-(4-(5,6-difluoro-1H-indol-3-yl)-1H-pyrazol-1-yl)propanoic acid], for which, in assay [1], the IC50 lay in the range of 10 to 100 µM.
Same read-out and setting: next, `O=C1NCCN1CCn1cc(-c2c[nH]c3cc(F)ccc23)cn1` [Example 18, 1-(2-(4-(6-fluoro-1H-indol-3-yl)-1H-pyrazol-1-yl)ethyl)imidazolidin-2-one]: 1 to 10 µM.
For `CN1CCN(CCn2cc(-c3c[nH]c4cc(F)ccc34)cn2)CC1` [Example 19, 6-fluoro-3-(1-(2-(4-methylpiperazin-1-yl)ethyl)-1H-pyrazol-4-yl)-1H-indole], the 50% inhibitory concentration (IC50) is 1 to 10 µM in assay [1] and < 1 µM in assay [2].
For `Fc1ccc2c(-c3cnn(CCN4CCOCC4)c3)c[nH]c2c1` [Example 20, 4-(2-(4-(6-fluoro-1H-indol-3-yl)-1H-pyrazol-1-yl)ethyl)morpholine] the same measures were 1 to 10 µM and 1 to 10 µM.
For `NC(=O)NCCn1cc(-c2c[nH]c3cc(F)ccc23)cn1` [Example 22, 1-(2-(4-(6-fluoro-1H-indol-3-yl)-1H-pyrazol-1-yl)ethyl)urea] the same measures were 1 to 10 µM and 1 to 10 µM.
Turning to `CNC(=O)NCCn1cc(-c2c[nH]c3cc(F)ccc23)cn1` [Example 23, 1-(2-(4-(6-fluoro-1H-indol-3-yl)-1H-pyrazol-1-yl)ethyl)-3-methylurea], the half-maximal inhibitory concentration (IC50) in assay [1] was 1 to 10 µM.
Consider `CS(=O)(=O)NCCn1cc(-c2c[nH]c3cc(F)ccc23)cn1` [Example 25, N-(2-(4-(6-fluoro-1H-indol-3-yl)-1H-pyrazol-1-yl)ethyl)methanesulfonamide], for which the IC50 in assay [1] is 1 to 10 µM; in assay [2], < 1 µM.
For `CC(=O)N1CCN(CCn2cc(-c3c[nH]c4cc(F)ccc34)cn2)CC1` [Example 28, 1-(4-(2-(4-(6-fluoro-1H-indol-3-yl)-1H-pyrazol-1-yl)ethyl)piperazin-1-yl)ethanone], the IC50 in assay [1] fell in the range of 10 to 100 µM.
Same read-out and setting: next, `O=C1CCCN1CCn1cc(-c2c[nH]c3cc(F)ccc23)cn1` [Example 30, 1-(2-(4-(6-fluoro-1H-indol-3-yl)-1H-pyrazol-1-yl)ethyl)pyrrolidin-2-one]: 1 to 10 µM; `O=C(O)Cn1cc(-c2c[nH]c3cc(F)ccc23)cn1` [Example 41, 2-(4-(6-fluoro-1H-indol-3-yl)-1H-pyrazol-1-yl)acetic acid]: 10 to 100 µM; `COC(=O)Cn1cc(-c2c[nH]c3cc(F)ccc23)cn1` [Example 42, methyl 2-(4-(6-fluoro-1H-indol-3-yl)-1H-pyrazol-1-yl)acetate]: 1 to 10 µM.
Still for that read-out and setting: next, `Fc1ccc2c(-c3cnn(CC4CCN(CC(F)(F)F)CC4)c3)c[nH]c2c1` [Example 45, 6-fluoro-3-(1-((1-(2,2,2-trifluoroethyl)piperidin-4-yl)methyl)-1H-pyrazol-4-yl)-1H-indole]: 1 to 10 µM; `O=C(O)CN1CCC(Cn2cc(-c3c[nH]c4cc(F)ccc34)cn2)CC1` [Example 49, 2-(4-((4-(6-fluoro-1H-indol-3-yl)-1H-pyrazol-1-yl)methyl)piperidin-1-yl)acetic acid]: 1 to 10 µM; `O=C(O)CCC(=O)N1CCC(Cn2cc(-c3c[nH]c4cc(F)ccc34)cn2)CC1` [Example 50, 4-(4-((4-(6-fluoro-1H-indol-3-yl)-1H-pyrazol-1-yl)methyl)piperidin-1-yl)-4-oxobutanoic acid]: 10 to 100 µM.
As for `CNC(=O)[C@H]1C[C@@H](n2cc(-c3c[nH]c4cc(F)ccc34)cn2)C1` [Example 63, (1S,3S)-3-(4-(6-fluoro-1H-indol-3-yl)-1H-pyrazol-1-yl)-N-methylcyclobutanecarboxamide], the IC50 in assay [1] fell in the range of 1 to 10 µM.
Same read-out and setting: next, `CNC(=O)[C@H]1C[C@H](n2cc(-c3c[nH]c4cc(F)ccc34)cn2)C1` [Example 64, (1R,3R)-3-(4-(6-fluoro-1H-indol-3-yl)-1H-pyrazol-1-yl)-N-methylcyclobutanecarboxamide]: 1 to 10 µM.
On the same count and under the same terms, next, `O=C(O)[C@H]1C[C@@H](n2cc(-c3c[nH]c4cc(F)ccc34)cn2)C1` [Example 65, (1S,3S)-3-(4-(6-fluoro-1H-indol-3-yl)-1H-pyrazol-1-yl)cyclobutanecarboxylic acid]: 10 to 100 µM; `O=C(O)[C@H]1C[C@H](n2cc(-c3c[nH]c4cc(F)ccc34)cn2)C1` [Example 66, (1R,3R)-3-(4-(6-fluoro-1H-indol-3-yl)-1H-pyrazol-1-yl)cyclobutanecarboxylic acid]: 10 to 100 µM; `FC(F)(F)c1ccc2c(-c3cn[nH]c3)c[nH]c2c1` [Example 72, 3-(1H-pyrazol-4-yl)-6-(trifluoromethyl)-1H-indole]: 10 to 100 µM.
The same measure, in the same setting: next, `OCCN1CCC(n2cc(-c3c[nH]c4cc(F)ccc34)cn2)CC1` [Example 79, 2-(4-(4-(6-fluoro-1H-indol-3-yl)-1H-pyrazol-1-yl)piperidin-1-yl)ethanol]: 1 to 10 µM; `COCCC(=O)N1CCC(n2cc(-c3c[nH]c4cc(F)ccc34)cn2)CC1` [Example 81, 1-(4-(4-(6-fluoro-1H-indol-3-yl)-1H-pyrazol-1-yl)piperidin-1-yl)-3-methoxypropan-1-one]: 1 to 10 µM; `CCC(=O)N1CCC(n2cc(-c3c[nH]c4cc(F)ccc34)cn2)CC1` [Example 82, 1-(4-(4-(6-fluoro-1H-indol-3-yl)-1H-pyrazol-1-yl)piperidin-1-yl)propan-1-one]: 1 to 10 µM.
Consider `Fc1ccc2c(-c3cnn(-c4ccc(Cl)nn4)c3)c[nH]c2c1` [Example 108, 3-(1-(6-chloropyridazin-3-yl)-1H-pyrazol-4-yl)-6-fluoro-1H-indole], for which the concentration for half-maximal inhibition (IC50) in assay [1] lay within 10 to 100 µM.
